Data as given in patent publication US20250009780A1, “AGENTS ENCODING CLDN6 AND CD3 BINDING ELEMENTS FOR TREATING CLDN6-POSITIVE CANCERS” (BIONTECH SE, priority 2021, published 2025).
Read-outs that look alike come from different tables or passages of the source. Values belong to the compound of their own block, whether it stands above or below them.

Legend:
[1] = Rat IV PK study of lipid excipient ALC-0159; format: in vivo, Wistar Han rats; settings: for half-life: Wistar Han, rat, plasma, iv, 1.96 mg ALC-0159/kg, 1.96 mg ALC-0159/kg single IV
Experimental: BNT142 contains the PEG lipid excipient ALC-0159 in the nanoparticle. […] ALC-0159 was then cleared from plasma with a terminal elimination ty, of 72.7 h. The estimated percent of lipid dose distributed to the liver was ˜20%.

[2] = Metabolism of ALC-0159 in vitro and ex vivo; format: in vitro ADME, mouse, rat, monkey and human; settings: yields N,N-ditetradecylamine; across species
Source text: The metabolism of ALC-0159, was examined in vitro using blood, liver S9 fractions and hepatocytes, all from mouse, rat, monkey and human and ex vivo in the rat plasma, urine, feces, and liver from the PK study. […] This hydrolytic metabolism was observed across the species evaluated.

[3] = tested on: human PBMCs (T cells); assay: T-cell proliferation assay (CFSE-labeled PBMCs, flow cytometry); format: cell-based; settings: presence as well as absence of target cells
Source text: CFSE-labeled human PBMCs from three healthy donors were co-cultured with CLDN6-positive PA-1 and OV-90 target cells or with CLDN6-negative but control TAA-positive NUGC-4 as well as target-negative MDA-MB-231 control cells in a 12-well culture plate format. An effector-to-target-cell ratio of 10:1 was applied. In addition, PBMCs without (−) target cells were included separately. […] OKT3 antibody (anti-human CD3; black bars) served as positive control for target-independent CD3-driven T-cell proliferation. After 72 h of incubation, the percentages of proliferating T cells were analyzed by flow cytometry.
HEK-293T-17 producer cells were transfected with BNT142 or a control RiboMab-encoding RNA. Supernatants containing RiboMab02.1 or the control RiboMab (specific for an irrelevant TAA) were used as test items. Two concentrations (100 or 1 ng/mL) of RiboMab-containing supernatant were added to co-cultures of carboxyfluorescein succinimidyl ester (CFSE)-labeled human PBMCs and target-positive or -negative cells. PA-1 or OV-90 served as CLDN6-positive and MDA-MB-231 as target-negative cells. CLDN6-negative NUGC-4 cells (expressing the irrelevant TAA) as well as PBMCs in the absence of any target cells were included as further specificity controls. PBMCs from three healthy donors were compared in this assay. After 72 h of incubation, T cells were analyzed by flow cytometry to determine target-dependent proliferation.

[4] = tested on: human PBMCs (T cells); assay: T-cell activation assay (CD69/CD25, flow cytometry); format: cell-based; settings: with and without target cells (data not shown)
Experimental: Human PBMCs from three healthy donors (effector cells) were cultured in the presence and absence of CLDN6-positive PA-1 cells (target cells) at a 10:1 effector-to-target-cell ratio. RiboMab02.1-containing mouse serum was serially-diluted (10-fold, 10-point; range: 4.0×10^−6 to 4,000 ng/mL) prior to use in the assay. After 48 h of co-incubation, cells were stained with anti-CD5, anti-CD69 and anti-CD25 antibodies for flow cytometric analysis of T cells. Shown here is the total T-cell activation normalized to samples incubated with mock serum from Luc_RNA-LNP-treated mice. Percentages of activated T cells are shown for each individual donor (left) and for all three donors as mean (right). Filled symbols represent values with and black, open symbols without target cells.
RiboMab02.1-containing as well as mock serum samples were obtained from mice administered either with BNT142 or luciferase encoding RNA-LNP (Luc_RNA-LNP; mock). Human PBMCs from three healthy donors were used as effector cells. Serum samples were serially-diluted (10-fold, 10-point), starting at 4,000 ng/mL, and added to PBMCs cultured alone or together with CLDN6-positive PA-1 target cells at an effector-to-target-cell ratio of 10:1. After 48 h of incubation, T cells were analyzed by flow cytometry for surface expression of the early and late activation markers CD69 and CD25, respectively. […] OKT3 positive control led to >50% T-cell activation with and without target cells (data not shown). Upregulation of CD69 on T cells was higher than that of CD25; CD25-positive cells were almost exclusively CD69 double-positive, pointing to an early activation state (data not shown).

[5] = tested on: human PBMCs; assay: In vitro human cytokine release (multiplex ELISA on T-cell activation assay supernatants); format: cell-based; settings: positive control
Experimental: Cytokine concentration values for each donor (means of technical triplicates) are shown. Filled symbols represent values with target cells while open symbols represent values without target cells.
Cell culture supernatants obtained from the T-cell activation assay were analyzed to investigate the RiboMab02.1-dependent induction of on- and off-target cytokine release. The levels of human pro-inflammatory cytokines IFN-γ, IL-1β, IL-2, IL-6, IL-10 and TNF-α were measured using a customized multiplex ELISA kit.

[6] = In vitro metabolic stability, liver microsomes; format: in vitro ADME, mouse, rat, monkey, and human; settings: 120 min, all species
Experimental: (§1) The in vitro metabolic stability of ALC-0366 (aminolipid) was evaluated in mouse, rat, monkey, and human liver microsomes, S9 fractions, and hepatocytes. ALC-0366 was stable over 120 min in liver microsomes (remaining ALC-0366 >89%) and S9 fractions (remaining ALC-0366 >88%) and over 240 min in hepatocytes (remaining ALC-0366 >94%) in all species and test systems.

[7] = In vitro metabolic stability, S9 fractions; format: in vitro ADME, mouse, rat, monkey, and human; settings: 120 min, all species
Experimental: as §1

[8] = In vitro metabolic stability, hepatocytes; format: in vitro ADME, mouse, rat, monkey, and human; settings: 240 min, all species
Experimental: as §1

[9] = tested on: CLDN6-positive human ovarian carcinoma (OV-90) xenograft; assay: OV-90 xenograft model in PBMC-humanized NSG mice; format: in vivo, mouse
Experimental: NSG mice bearing advanced SC tumor xenografts of OV-90 cells (mean tumor volume at treatment start=100 mm^3) were engrafted with human PBMCs as effector cells by IP injection. Tumor volume was measured twice per week with a digital caliper. […] (A) Treatment schedule. (B) Tumor volume of individual mice at designated time points. (C) Overview of the median tumor volume per group, each comprising 13 to 14 mice at the start of the study and a minimum of five mice at the last data points. The vertical dotted lines represent the time points of IV administration of test/control items. Four mice (five mice from the 0.1 μg BNT142 group) from all groups were euthanized on Day 38 to obtain samples for ex vivo assays. (D) Number of CD3-positive cells per mm^2 of xenograft tissue as determined by immunohistochemical (IHC) staining using an anti-human CD3 antibody. […] Horizontal lines represent the mean (n=4 to 5). (E) Percentage of CLDN6-positive cells in tumor xenografts of mice from the respective test and control groups as determined by IHC staining using an anti-human CLDN6 antibody. Tumor xenografts were dissected at different time points over the course of the study. Horizontal lines represent the mean (n=8 to 10). […] Reddish-brown staining (dark in the black and white figure) indicates a positive IHC signal while the bluish-purple areas indicate an absence of positive staining (negative IHC signal).
To determine the anti-tumor efficacy of BNT142 in vivo, a CLDN6-positive human ovarian carcinoma (OV-90) xenograft mouse model was used. Briefly, immunodeficient male and female NOD.Cg-Prkd^scid IL2rg^tm1Wjl/SzJ (NSG) mice were subcutaneously (SC) inoculated with human OV-90 ovarian carcinoma cells. Mice with established tumors (mean size ≥30 mm^3) were engrafted intraperitoneally (IP) with human PBMCs from a healthy donor (resulting mouse model annotated as NSG/PBMC). Seven days later, a treatment regimen comprising five weekly single IV bolus injections of BNT142 or control items was initiated. BNT142 was administered at doses of 0.1 or 1 μg (˜0.004 and 0.04 mg/kg) per mouse. […]

[10] = tested on: human pro-inflammatory cytokines in NSG/PBMC mice; assay: Human cytokine release in serum of NSG/PBMC mice; format: in vivo, mouse; settings: 100 μg reference protein; 6-hour time point
Experimental: An additional non-tumor-bearing (w/o tumor) group administered with 1 μg BNT142 was included. (A) Concentrations of human cytokines (IFN-γ, IL-6, IL-2, IL-10, TNF-α and IL-1β) in mouse serum as determined by multiplex ELISA at the 6- (n=8) and 72-hour (n=4) time points. Data was normalized to saline-administered animals of the respective time points. Horizontal lines indicate medians. Unpaired and paired samples were compared using the Mann-Whitney U test or Wilcoxon signed-rank test, respectively. […] Horizontal lines indicate means.
The human pro-inflammatory cytokines IFN-γ, IL-1β, IL-2, IL-6, IL-10 and TNF-α were measured in serum samples of OV-90 human xenograft tumor-bearing NSG/PBMC mice obtained after 6 and 72 h of the third BNT142 administration (see above). An additional group of tumor-free NSG/PBMC mice was treated with 1 μg BNT142. […] Data were normalized to the values obtained with the saline control group at the respective time points.

[11] = target: T1, CLDN6 (Homo sapiens, UniProt P56747); assay: Cell microarray off-target binding assay, CLDN6; settings: fixed HEK293 cells overexpressing target
T1 construct: expressed in transfected cells
T1 sequence (P56747 1-220): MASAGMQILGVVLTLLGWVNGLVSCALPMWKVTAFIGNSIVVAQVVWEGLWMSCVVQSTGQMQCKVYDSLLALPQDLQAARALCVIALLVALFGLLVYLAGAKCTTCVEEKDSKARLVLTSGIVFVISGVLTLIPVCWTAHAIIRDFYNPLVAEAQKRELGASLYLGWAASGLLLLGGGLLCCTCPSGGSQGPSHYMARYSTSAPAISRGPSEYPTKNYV
Source text: (§2) The tribody was screened for binding against fixed human HEK293 cells, individually overexpressing 6,239 different full-length human plasma membrane proteins and cell surface-tethered human secreted proteins, including 371 heterodimers.

[12] = tested on: 6,239 full-length human plasma membrane proteins and cell surface-tethered human secreted proteins; assay: Cell microarray off-target binding assay, remaining panel; settings: fixed HEK293 cells
Source text: as §2

[13] = target: T2, CLDN9 (Homo sapiens, UniProt O95484); assay: Cell microarray off-target binding assay, CLDN9; parameters: individually overexpressing 6,239 different full-length human plasma membrane proteins; expressed in transfected cells; host or cells: fixed human HEK293 cells; settings: fixed HEK293 cells overexpressing target
T2 sequence (O95484 1-217): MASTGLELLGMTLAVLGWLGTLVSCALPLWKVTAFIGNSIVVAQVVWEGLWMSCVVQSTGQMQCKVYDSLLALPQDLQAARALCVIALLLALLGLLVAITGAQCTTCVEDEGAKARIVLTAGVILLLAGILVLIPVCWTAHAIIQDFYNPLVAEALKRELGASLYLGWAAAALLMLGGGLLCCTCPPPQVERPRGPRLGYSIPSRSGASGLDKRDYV
Source text: as §2

Compound: CCCCCCCCCCCCCCN(CCCCCCCCCCCCCC)C(=O)COCCOCCOCCOCCOCCOCCOCCOCCOCCOCCOCCOCCOCCOCCOCCOCCOCCOCCOCCOCCOCCOCCOCCOCCOCCOCCOCCOCCOCCOCCOCCOCCOCCOCCOCCOCCOCCOCCOCCOCCOCCOCCOCCOCCOCCOC [ALC-0159, 2-[(Polyethylene glycol)-2000]-N,N-ditetradecylacetamide]
excretion in urine ([1]; IV administration of RNA-LNP): no detectable excretion | percentage of dose excreted unchanged in feces ([1]; IV administration of RNA-LNP): ~50% | half-life ([1]; read-out: initial plasma half-life (converted)): 1.72 h | half-life ([1]; read-out: terminal elimination half-life in plasma (converted)): 72.7 h | drop of plasma concentration ([1]; during 2 wk study): approximately 8,000 fold | estimated percent of lipid dose distributed to the liver ([1]; single IV): ~20% | metabolism [2]: metabolized relatively slowly by amide bond hydrolysis

Compound: OKT3: human CD3-specific antibody used as positive control for T-cell activation [reference compound]
T-cell activation (positive control in proliferation assay) [3]: strong activation | T-cell activation [4]: > 50% | cytokine release [5]: induced cytokine release in the presence as well as absence of target cells

Compound: CCCCCCC(CCCC)C(=O)OCCCCCCCCCN(CCCO)CCCCCCCCCOC(=O)C(CCCC)CCCCCC (centres unmarked) [ALC-0366, ((3-Hydroxypropyl)azanediyl)bis(nonane-9,1-diyl) bis(2-butyloctanoate)]
remaining ALC-0366 [6]: > 89% | remaining ALC-0366 [7]: > 88% | remaining ALC-0366 [8]: > 94%

interaction with CLDN6 [11]: specific interaction
Compound: reference protein: recombinant purified CD3×(CLDN6)2 tribody reference protein, sequence-identical to RiboMab02.1
start of tumor volume shrinkage ([9]; 100 μg reference protein IV once weekly x5): after the third treatment | TIL per mm^2 tumor tissue (average) ([9]; 100 μg reference protein, 72 h after third injection): 1,542 per mm^2 | tumor reduction ([9]; treated groups in contrast to negative control groups): significant tumor reduction | human cytokine elevation in serum [10]: transient but significant elevation of all six cytokines | other binding [12]: No other binding was observed | interaction with CLDN9 [13]: weak off-target interaction
